Converted amounts (≈) assume the structure as drawn. Structures can show the parent of a compound that is named as a salt. Where two headings read alike, the source gives them in different places. Residues, ends and D or L forms follow the SMILES beside them. A value given as a limit tells only on which side of the number the result lay.

Data set [1] can be described thus: physchem.
A short description of data set [2]: Gravimetric vapour sorption (GVS). The class given is physicochemical. Here is the method:
Approximately 15 mg of sample was placed into a mesh vapour sorption balance pan and loaded into an IGASorp Moisture Sorption Analyser balance by Hiden Analytical. The sample was subjected to a ramping profile from 40-90% relative humidity (RH) at 10% increments, maintaining the sample at each step until a stable weight had been achieved (98% step completion). After completion of the sorption cycle, the sample was dried using the same procedure to 0% RH, then subjected to a second ramping profile from 0-90% relative humidity. After completion of the second sorption cycle, the sample was dried using the same procedure to 0% RH, and finally taken back to the starting point of 40% RH. The weight change during the sorption/desorption cycles were plotted, allowing for the hygroscopic nature of the sample to be determined.

Data set [3] can be described thus: Effect of drying and humidity exposure on crystalline solid (XRPD). The class given is physicochemical. The method, then:
Powder x-ray diffraction (XRPD) experiments were performed on a Rigaku MiniFlex 600 equipped with a Cu Kα radiation source (wavelength of x-rays 1.54 Å), and a scintillation detector. Samples were prepared on Si zero-return wafers. Scans were performed from 2θ 4 to 30 degrees over a step size of 0.05 over thirty minutes with cathode ray tube voltage and current 40 kV and 15 mA, respectively.
The crystalline solid was dried at 50 C under vacuum overnight, and analyzed by XRPD. […] Furthermore, the dry solid was exposed to about 95% relative humidity at room temperature for 24 hours followed by XRPD analysis. […] It should be noted that 3-HCl salt of MTP-131 deliquesces at more than 70% relative humidity.

Data set [4] in a line: physchem. As to conditions: water.
Experimental: The solubility of the crystalline solid was assessed qualitatively in water.

Consider `Cc1cc(O)cc(C)c1C[C@H](NC(=O)[C@H](N)CCCNC(=N)N)C(=O)N[C@@H](CCCCN)C(=O)N[C@@H](Cc1ccccc1)C(N)=O` [MTP-131 HCl] (HELM PEPTIDE1{[dR].[Cc1cc(O)cc(C)c1C[C@H](N[*:1])C(=O)[*:2]].K.F.[am]}$$$$V2.0), for which the solubility (as a rule, how much of the substance goes into solution per volume) in the data set “physchem [1]” was not above 10000 µg/mL; in the data set “physchem [1]” (2-Propanol, Solubility at 50° C.), less than 10000 µg/mL; in “physchem [1]” (2-Propanol:Water (95:5 v/v), Solubility at 50° C., 2-Propanol:Water (95:5 v/v)), less than 10000 µg/mL; in “physchem [1]” (2-Propanol:Water (99:1 v/v), Solubility at 50° C., 2-Propanol:Water (99:1 v/v)), less than 10000 µg/mL; in the data set “physchem [1]” (Acetone, Solubility at 50° C.), less than 10000 µg/mL; in the data set “physchem [1]” (Acetone:Water (95:5 v/v), Solubility at 50° C., Acetone:Water (95:5 v/v)), less than 10000 µg/mL. The solubility is less than 10000 µg/mL in the data set “physchem [1]” (Acetonitrile:DMSO (85:15 v/v), Solubility at 50° C., Acetonitrile:DMSO (85:15 v/v)); less than 10000 µg/mL in the data set “physchem [1]” (Acetonitrile:Water (95:5 v/v), Solubility at 50° C., Acetonitrile:Water (95:5 v/v)); less than 10000 µg/mL in the data set “physchem [1]” (Acetonitrile:Water (99:1 v/v), Solubility at 50° C., Acetonitrile:Water (99:1 v/v)); less than 10000 µg/mL in “physchem [1]” (DCM:DMSO (85:15 v/v), Solubility at 50° C., DCM:DMSO (85:15 v/v)); less than 10000 µg/mL in “physchem [1]” (Dichloromethane, Solubility, carried out at 35° C. (footnote)); 10000 µg/mL in the data set “physchem [1]” (Ethanol, Solubility at 50° C.). Moreover, the solubility in the data set “physchem [1]” (Ethanol:DMSO (95:5% v/v), Solubility at 50° C., Ethanol:DMSO (95:5% v/v)) is approximately 33000 µg/mL; in the data set “physchem [1]” (Ethanol:Water (95:5 v/v), Solubility at 50° C., Ethanol:Water (95:5 v/v)), approximately 67000 µg/mL; in “physchem [1]” (Methanol, Solubility at 50° C.) it was more than 200000 µg/mL; in the data set “physchem [1]” (Methanol:Water (95:5 v/v), Solubility at 50° C., Methanol:Water (95:5 v/v)), more than 200000 µg/mL; in “physchem [1]” (THF:Water (95:5% v/v), Solubility at 50° C., THF:Water (95:5% v/v), (separated)), less than 10000 µg/mL; in the data set “physchem [1]” (THF:Water (99:1 v/v), Solubility at 50° C., THF:Water (99:1 v/v)), less than 10000 µg/mL. Besides, the solubility in the data set “physchem [1]” (Trifluoroethanol, Solubility at 50° C.) is less than 10000 µg/mL. Moreover, in data set [2], the “Hygroscopicity by GVS” value is on record as “highly hygroscopic”. Also, the GVS mass increase entry in data set [2] (between 40-90% RH) is given as “ca. 30%”. In addition, in data set [2] (ramping up to 90% RH), the “State of solid after GVS” value was “deliquesced and adhered to the basket”. In addition, the “Relative humidity at which the salt deliquesces” value in data set [3] is given as “more than 70 % relative humidity”.
On to `Cc1cc(O)cc(C)c1C[C@H](NC(=O)[C@H](N)CCCNC(=N)N)C(=O)N[C@@H](CCCCN)C(=O)N[C@@H](Cc1ccccc1)C(N)=O` [crystalline solid] (HELM PEPTIDE1{[dR].[Cc1cc(O)cc(C)c1C[C@H](N[*:1])C(=O)[*:2]].K.F.[am]}$$$$V2.0), for which the “Physical integrity after humidity exposure” value in data set [3] (about 95% relative humidity, room temperature, 24 hours) is given as “physically kept its integrity”. Besides, the “XRPD pattern after drying (stability upon drying)” value in data set [3] (dried at 50 C under vacuum overnight) was “No changes were observed”. Further, in data set [3] (dry solid, about 95% relative humidity, room temperature, 24 hours), the “XRPD after humidity exposure” value is “remained unchanged”. The compound also came in with a solubility in the data set “physchem [4]” of approximately 60000 µg/mL (≈ 93.8 mM).

The values are drawn from patent publication US11261213B2, “Crystalline bis- and tris-hydrochloride salt of elamipretide” (Stealth BioTherapeutics Inc., priority 2018, dated 2022).
